From publication PMC12655682, “Screening-Identified Oxazole-4-Carboxamide KB-2777 Exhibits In Vitro Anti-Coronavirus Activity” (Pharmaceutics, 2025)
Entries after “also recorded” stand apart in the source; their conditions may differ. Where two headings read alike, the source gives them in different places.

Assays:
[1] = Visible crystals or precipitates in the cell assay (soluble range); assay type: physicochemical; details: cell assay medium; without loss of viability or morphological change
Method: We screened 11 oxazole-4-carboxamide derivatives (Figure 1) against HCoV-NL63 in LLC-MK2 cells and quantified antiviral activity and cytotoxicity (Figure 2). Several derivatives inhibited NL63 with distinct selectivity profiles. […] Visible crystals or precipitates formed at ≥50 µM without loss of viability or morphological change; therefore, downstream assays were performed at ≤25 µM.

HCoV-NL63 [2] = assay: Extracellular viral RNA by RT-qPCR of supernatants, HCoV-NL63/LLC-MK2; assay type: cell-based, Human coronavirus NL63
Method: […] Viral RNA was extracted using the QIAamp Viral RNA Mini Kit (Qiagen, Hilden, Germany)according to the manufacturer’s instructions and quantified by one-step RT-qPCR on a real-time thermocycler.
(§1) EC50 values were determined from concentration–response curves generated by 2-fold serial dilutions, with at least four concentration points per curve. Each measurement was performed in triplicate technical replicates. Unless otherwise indicated, data are presented as mean ± SEM from three independent biological experiments (n = 3).
(§2) For absolute quantification, synthetic DNA (oligonucleotide) standards corresponding to the NL63, OC43, and PEDV amplicons were used. Ten-fold serial dilutions were prepared to generate standard curves. Ct values were interpolated against the curves to obtain gene copies per reaction and converted to genome copies per mL by accounting for extraction and elution volumes and the qPCR input volume.

PEDV = assay: Extracellular viral RNA by RT-qPCR of supernatants, PEDV/Vero E6; assay type: cell-based; details: Porcine epidemic diarrhea virus, Vero C1008; PEDV/Vero E6, 72 h post-infection, n = 3
Method: At 72 h post-infection, 100–200 μL of culture supernatant was collected. Viral RNA was extracted using the QIAamp Viral RNA Mini Kit (Qiagen, Hilden, Germany)according to the manufacturer’s instructions and quantified by one-step RT-qPCR on a real-time thermocycler.
as §1, §2

HCoV-NL63 [3] = assay: Infectious titer (TCID50) of HCoV-NL63 at 48 h; assay type: cell-based, Human coronavirus NL63
Method: HCoV-OC43 (KBPV-VR-8), HCoV-NL63 (KBPV-VR-88), and PEDV DR13 (originally described in [20]) were used. HCoV-NL63 was propagated in LLC-MK2 cells, and HCoV-OC43 and PEDV DR13 were propagated in Vero E6 cells. Virus-containing supernatants were clarified (2000× g, 10 min, 4 °C), aliquoted, and stored at −80 °C. Infectious titers (TCID50/mL) were determined on the corresponding host cell lines by the Spearman–Kärber method with back-titrations included in each experiment.
We sought to confirm whether the antiviral activity observed by RT-qPCR was also present at the level of infectious progeny virus. […] Bars represent mean ± SEM; n = 3 independent experiments (triplicate wells per concentration).

HCoV-NL63 [4] = assay: Time-of-addition, spike (S) protein immunofluorescence assay, HCoV-NL63/LLC-MK2; assay type: cell-based, Human coronavirus NL63
Method: At 48 h post-infection, cells were fixed in 4% paraformaldehyde for 15 min, permeabilized with 0.1% Triton X-100, and blocked with 5% BSA. Samples were incubated with a virus-specific rabbit anti-S protein primary antibody, followed by a goat anti-rabbit IgG H&L (FITC) secondary antibody (Supplementary Table S1) and Hoechst nuclear counterstain. Images were acquired on an epifluorescence microscope. Using Fiji, binary thresholding and particle analysis (or Cell Counter) were applied to count the total number of cells and the number of S-positive cells per field, and the infection rate per well was calculated as (S-positive cells/total cells × 100%). At least eight randomly selected fields per well were analyzed.
TOA experiments were performed in HCoV-NL63–infected LLC-MK2 cells using four regimens: • Full: compound present from −24 h to 48 h relative to infection. • Pre-treatment: −24 h to −1 h, wash at −1 h, then infection in drug-free medium. • Co-treatment: −1 h to 0 h during adsorption only, wash at 0 h. • Post-treatment: 0 h to 48 h after adsorption.
Unless otherwise specified, infections were carried out at 100 TCID50 per well with 1 h adsorption at 37 °C, and compounds were used at 20 µM. Primary readout was S protein IFA at 48 h; EZ-Cytox and TCID50 at 48 h for the same regimens are provided in Supplementary Data (Figures S14 and S15).

[5] = test system: IL6, ISG15, IFNB1, NQO1, HMOX1 (HO-1), GCLM, DDIT3 (CHOP), ATF4, XBP1 transcripts; assay: Targeted host-response transcript profiling (two-step RT-qPCR) in MRC-5 cells; assay type: cell-based, human; details: n = 3
Method: Total RNA was isolated using the RNeasy kit (QIAGEN, Hilden, Germany) according to the manufacturer’s instructions. cDNA was synthesized with the Tetro cDNA Synthesis Kit (Meridian Bioscience, Memphis, TN, USA) following the manufacturer’s protocol. Quantitative PCR was performed using Luna Universal qPCR Master Mix, SYBR (New England Biolabs, Ipswich, MA, USA). Target genes included IL6, ISG15, IFNB1, NQO1, HMOX1 (HO-1), GCLM, DDIT3 (CHOP), ATF4, and XBP1; primer sequences are listed in Table S3. ACTB served as the internal control. Expression changes were calculated as −ΔΔCt (log2 fold change) relative to time-matched calibrators (OC43 only for infected comparisons; DMSO for uninfected). Each condition included n = 3 biological replicates. At each time point, data were analyzed independently in GraphPad Prism 10.1.2 (GraphPad Software, San Diego, CA, USA) using an ordinary two-way ANOVA with factors gene (9 levels) and treatment (2 levels). Significance marks reflect within-gene simple-effects comparisons (treatment) with Tukey’s multiple-comparisons adjustment (two-tailed, α = 0.05). Time was not included as a factor; no inferences were made across time points.

[6] = test system: HCoV-NL63-infected LLC-MK2 cells; assay: Propidium iodide (PI) live/dead imaging in HCoV-NL63/LLC-MK2; assay type: cell-based, rhesus monkey; details: 20 µM post-treatment, 48 h post-infection, vs virus + DMSO, p < 0.01
Method: Cells were infected as in the immunofluorescence assay (IFA) and were post-treated with KB-2777 (20 µM, DMSO ≤ 0.1%). At 48 h post-infection, cells were stained live with PI (approximately 1 µg/mL, 30 min) and were immediately imaged (PI/Hoechst). For each field, we counted total nuclei (Hoechst), NL63 S-positive cells, PI-positive cells, and double-positive (S∩PI) cells. Outcomes were % PI^+/Total and % PI^+ among infected cells (PI^+/NL63 S^+). […] Statistics used the Mann–Whitney U test (two-tailed).

Structure (SMILES): COc1cccc(-c2oc(-c3ccc(C(F)(F)F)cc3)nc2C(=O)NCC2CC2)c1 [KB-2777, N-(cyclopropylmethyl)-5-(3-methoxyphenyl)-2-(4-(trifluoromethyl)phenyl)Oxazole-4-Carboxamide]
- concentration at which visible crystals or precipitates formed [1]: ≥ 50 µM
- inhibition of viral RNA at 24 h (HCoV-NL63 [2]; HCoV-NL63, post-treatment regimen, 24 h post-infection, 0–25 µM): minimal
- EC50 (HCoV-NL63 [2]; Human coronavirus NL63, LLC-MK2, HCoV-NL63, post-treatment regimen, 48 h post-infection, read-out: EC50 (viral RNA, RT-qPCR) at 48 h): 2.42 µM
- EC50 (HCoV-NL63 [2]; Human coronavirus NL63, LLC-MK2, HCoV-NL63, post-treatment regimen, 72 h post-infection, read-out: EC50 (viral RNA, RT-qPCR) at 72 h): 5.25 µM
- EC50 (HCoV-NL63 [2]; Human coronavirus NL63, HCoV-NL63/LLC-MK2, 72 h post-infection, n = 3, read-out: EC50 (viral RNA, RT-qPCR)): 5.27 µM
- EC50 (PEDV): 1.59 µM
- infectious titer (TCID50) vs virus control (HCoV-NL63 [3]; HCoV-NL63, 48 h, post-treatment, 12.5 µM and 25 µM, p < 0.0001, n = 3): decreased; also recorded: significant reductions
- infectious titers (log10[TCID50/mL]) across TOA regimens (HCoV-NL63 [3]; HCoV-NL63, 48 h post-infection, full/pre/co/post): decreased in a regimen-dependent manner, largest with full exposure, smaller with pre- and post-treatment, and minimal with co-treatment
- inhibition by S protein IFA, post-treatment (HCoV-NL63 [4]; HCoV-NL63/LLC-MK2, 20 µM, 0 h to 48 h, readout 48 h): retained measurable activity
- inhibition by S protein IFA, co-treatment (HCoV-NL63 [4]; HCoV-NL63/LLC-MK2, 20 µM, adsorption only (−1 h to 0 h), readout 48 h, vs virus-only DMSO control): little effect
- inhibition by S protein IFA, pre-treatment (HCoV-NL63 [4]; HCoV-NL63/LLC-MK2, 20 µM, pre-exposure with washout, readout 48 h): retained measurable activity
- inhibition by S protein IFA, full regimen (HCoV-NL63 [4]; HCoV-NL63/LLC-MK2, 20 µM, −24 h to 48 h, readout 48 h): greatest inhibition
- time-of-addition effect-size order of regimens (HCoV-NL63 [4]; full, pre, co, post regimens, across readouts): full > pre ≈ post > co; also recorded: full » pre ≈ post » co
- host-response transcripts (−ΔΔCt) in infected cells ([5]; OC43-infected MRC-5, OC43 + KB-2777 vs OC43 alone, time-matched): attenuated IL6, IFNB1, ISG15, and selected UPR transcripts; also recorded: attenuated these transcriptional responses
- host-response transcripts (−ΔΔCt) in uninfected cells ([5]; uninfected MRC-5, KB-2777 alone vs DMSO): changes were limited and transient
- % PI+ among infected cells (PI+/NL63 S+) [6]: reduces
- % PI+/Total cells [6]: reduces
